Converted amounts (≈) assume the structure as drawn. Read-outs that look alike come from different tables or passages of the source. Where a SMILES comes first, the peptide text is derived from it.
Columns and labels:
[1] = system: MG1655 dnaA-i; assay: MIC, CRISPRi dnaA-repressed MG1655; assay type: cell-based; details: Escherichia coli, broth microdilution, CRISPRi repression of dnaA, anhydrotetracycline 0.5 µg/mL, read-out: MIC values of MG1655 with gene silencing, dnaA-i
Text: (§1) The broth microdilution method was used to measure the MIC values of antibiotics and peptides according to the Clinical and Laboratory Standards Institute guidelines. The MIC value is defined as the lowest drug concentration without visible bacteria.
(§2) The engineered CRISPR/CRISPR-associated protein 9 (Cas9) system was used to repress the dnaA, deoB, icd, and thyA genes. Briefly, spacer 1 (5-[…]-3), spacer 2 (5-[…]-3), spacer 3 (5-[…]-3), and spacer 4 (5-[…]-3) were synthesized, and then, the construction of the targeting plasmid psgRNA was performed in a total volume of 25 µL. Subsequently, 1.5 µL of each newly constructed psgRNA and dCas9 was simultaneously electroporated into the competent cells of MG1655. MG1655 containing unmodified psgRNA and dCas9 was used as a control. Anhydrotetracycline at a final concentration of 0.5 µg/mL was used to induce gene repression. RT-qPCR was used to verify the expression of the genes.

[2] = system: MG1655 icd-i; assay: MIC, CRISPRi icd-repressed MG1655; assay type: cell-based; details: Escherichia coli, broth microdilution, CRISPRi repression of icd, read-out: MIC values of MG1655 with gene silencing, icd-i
Text: as §1, §2

[3] = system: MG1655 thyA-i; assay: MIC, CRISPRi thyA-repressed MG1655; assay type: cell-based, Escherichia coli; details: for MIC: Escherichia coli, MG1655, broth microdilution, CRISPRi repression of thyA, read-out: MIC values of MG1655 with gene silencing, thyA-i
Text: as §1, §2

[4] = system: AZI120 (evolved MG1655); assay: microbe, parasite or virus in culture; assay type: cell-based, Escherichia coli; details: Escherichia coli, MG1655; broth microdilution; azithromycin-evolved strain
Text: (§3) To ensure the stable resistance evolution and inheritance of MG1655 under different drugs, we randomly selected three monoclonals from the evolved strains. The final antibiotic-evolved strains were designated as AMP120, AZI120, CHL80, CIP120, DOX120, KAN80, NIT70, and TMP30, while the final AMP-evolved strains were named COL120, Ind120, Omi120, Pex120, PGLA120, Pleu120, R8120, SAAP120, LI120, and SLAP120.
as §1

[5] = system: KAN80 (evolved MG1655); assay: microbe, parasite or virus in culture; assay type: cell-based, Escherichia coli; details: Escherichia coli, MG1655; broth microdilution; kanamycin-evolved strain
Text: as §3, §1

[6] = system: TMP30 (evolved MG1655); assay: microbe, parasite or virus in culture; assay type: cell-based, Escherichia coli; details: for MIC: Escherichia coli, MG1655, broth microdilution, trimethoprim-evolved strain
Text: as §3, §1

[7] = system: NIT70 (evolved MG1655); assay: microbe, parasite or virus in culture; assay type: cell-based, Escherichia coli; details: Escherichia coli, MG1655; broth microdilution; nitrofurantoin-evolved strain
Text: as §3, §1

[8] = system: AMP120 (evolved MG1655); assay: microbe, parasite or virus in culture; assay type: cell-based, Escherichia coli; details: Escherichia coli, MG1655; broth microdilution; ampicillin-evolved strain
Text: as §3, §1

[9] = system: CIP120 (evolved MG1655); assay: microbe, parasite or virus in culture; assay type: cell-based, Escherichia coli; details: Escherichia coli; broth microdilution; ciprofloxacin-evolved strain
Text: as §3, §1

[10] = system: COL120 (evolved MG1655); assay: microbe, parasite or virus in culture; assay type: cell-based, Escherichia coli; details: Escherichia coli, MG1655; broth microdilution; colistin-evolved strain
Text: as §3, §1

[11] = system: CHL80 (evolved MG1655); assay: microbe, parasite or virus in culture; assay type: cell-based, Escherichia coli; details: Escherichia coli, MG1655; broth microdilution; chloramphenicol-evolved strain
Text: as §3, §1

[12] = system: DOX120 (evolved MG1655); assay: microbe, parasite or virus in culture; assay type: cell-based, Escherichia coli; details: Escherichia coli, MG1655; broth microdilution; doxycycline-evolved strain
Text: as §3, §1

[13] = system: E. coli K-12 MG1655; assay: microbe, parasite or virus in culture; assay type: cell-based, Escherichia coli; details: Escherichia coli
Experimental: as §1
Eight antibiotics and ten AMPs at the sub-inhibitory concentration were prepared. A 300-µL system, including 260 µL of MH broth, 30 µL of prepared drug, and 10 µL of bacterial culture, was used for resistance passages. After 12 h of incubation at 37℃ and 200 rpm, 10 µL of the above bacterial culture was added into the new sterile drug-containing broth. MIC values of bacterial culture were determined. The drug concentration was adjusted according to the MIC value change until the end of the 120 passages.

[14] = system: MG1655 deoB-i; assay: MIC, CRISPRi deoB-repressed MG1655; assay type: cell-based; details: Escherichia coli, broth microdilution, CRISPRi repression of deoB, read-out: MIC values of MG1655 with gene silencing, deoB-i
Text: as §1, §2

[15] = system: mice infected with MG1655; details: 5.0 × 10^8 CFU i.p.; trimethoprim 60 mg/kg i.p. 1 h after infection; organs at 48 h; n = 6
Experimental: Female BALB/c mice aged 6 to 8 weeks were randomly divided into four groups with six replicates for each group. Of bacterial suspension, 5.0 × 10^8 CFU was intraperitoneally injected to mice for 1 h, followed by a second intraperitoneal injection of trimethoprim (60 mg/kg) or pexiganan (10 mg/kg) or a combination of trimethoprim and pexiganan (30 + 5 mg/kg). The PBS injection group was used as a control. After 48 h, the liver, spleen, and kidneys of the mice were aseptically removed for CFU measurement.

[16] = system: MG1655 WT; assay: microbe, parasite or virus in culture; assay type: cell-based; details: Escherichia coli, MG1655, read-out: MIC values of MG1655 with gene silencing, WT
Text: as §1, §2

[17] = system: G. mellonella larvae infected by the original MG1655; assay: G. mellonella infection protection model, original MG1655; assay type: in vivo, Galleria mellonella; details: monotreatment 30 mg/kg at 1 h post-infection, 5 days, n = 8 per group
Experimental: (§4) The bacterial culture was uniformly diluted with saline to an OD600 of 0.35. G. mellonella larvae (n = 8 per group) were randomly divided, and sterile saline was used as the blank control. In the virulence assessment, 10 µL of bacterial solution was inoculated into each larva using a Hamilton syringe. The survival of larvae was observed and recorded daily for 7 days.
(§5) For the larval infection protection model, larvae were infected with wild-type and antibiotic-resistant strains and treated with a dose of 30 mg/kg of drugs at the left foot of the last gastropod at 1 h post-infection, and the survival was monitored for 5 days.

[18] = system: chloramphenicol-resistant strains (CHL80); assay: Disk diffusion experiment, chloramphenicol-resistant strains; assay type: cell-based, Escherichia coli; details: drug 2,048 µg/mL, LB agar, 37°C 24 h
Experimental: (§6) Fifty microliters of bacterial cultures was spread evenly onto LB agar. A prepared circular sterile filter paper was pasted on the center of the petri dish, and the corresponding drugs with a concentration of 2,048 µg/mL were dropped on the center of the circular filter paper. The petri dishes were placed at 37°C for 24 h, and the diameters of the sterile growth circles were measured.

[19] = system: G. mellonella larvae infected with chloramphenicol-resistant strains; assay: G. mellonella infection protection model, chloramphenicol-resistant strain; assay type: in vivo, Galleria mellonella; details: monotreatment 30 mg/kg at 1 h post-infection, 5 days, n = 8 per group
Experimental: as §4, §5

[20] = system: trimethoprim-resistant strains (TMP30); assay: Disk diffusion experiment, trimethoprim-resistant strains; assay type: cell-based, Escherichia coli; details: drug 2,048 µg/mL, LB agar, 37°C 24 h
Experimental: as §6

[21] = system: chloramphenicol-resistant bacteria (CHL80); details: 15-min exposure, tenfold the MIC of MG1655, 1 × 10^6 CFU log-phase, CFU counting
Experimental: (§7) Bacteria were cultured at 37°C and 200 rpm to the logarithmic phase (1 × 10^6 CFU). The corresponding drugs, with a final concentration of tenfold the MIC of MG1655, were added. At 15, 30, 60, 90, and 120 min, 50 µL of the mixture was serially diluted 10-fold and dropped on an LB agar plate for CFU counting.

[22] = system: original MG1655; details: tenfold the MIC of MG1655, 15-120 min, CFU counting
Experimental: as §7

[23] = MG1655, 12 h, read-out: MIC of MG1655 under the pressure of the same drug, generation 10
[24] = MG1655, read-out: MIC of MG1655 under the pressure of the same drug, generation primary
[25] = MG1655, as E2, generation 20, read-out: MIC of MG1655 under the pressure of the same drug, generation 20
[26] = MG1655, as E2, generation 30, read-out: MIC of MG1655 under the pressure of the same drug, generation 30

SMILES	MIC [1] [mg/L]	MIC [2] [mg/L]	MIC [3] [mg/L]	MIC [4] [mg/L]	MIC [5] [mg/L]	MIC [6] [mg/L]	MIC [7] [mg/L]	MIC [8] [mg/L]	MIC [9] [mg/L]	MIC [10] [mg/L]	MIC [11] [mg/L]	MIC [12] [mg/L]	MIC [13, 23] [mg/L]	MIC [13, 24] [mg/L]	MIC [13, 25] [mg/L]	MIC [13, 26] [mg/L]	MIC [14] [mg/L]	MIC [16] [mg/L]	also measured
COc1cc(Cc2cnc(N)nc2N)cc(OC)c1OC [TMP, Trimethoprim]	64 (≈ 220 µM)	128 (≈ 441 µM)	256 (≈ 882 µM)	64 (≈ 220 µM)	128 (≈ 441 µM)	512 (≈ 1760 µM)	128 (≈ 441 µM)	128 (≈ 441 µM)	128 (≈ 441 µM)	128 (≈ 441 µM)	128 (≈ 441 µM)	128 (≈ 441 µM)	128	64	128	512	128 (≈ 441 µM)	64 (≈ 220 µM)	increase in MIC in thyA-i strains vs original MG1655 ([3]; CRISPRi thyA repression): four-fold increase in MIC; bacterial loads in the liver, spleen, and kidneys of mice infected with MG1655 [15]: decreased significantly
CC[C@H](C)[C@H](NC(=O)[C@H](CCCNC(=N)N)NC(=O)[C@H](CS)NC(=O)[C@H](CC(C)C)NC(=O)[C@H](CCCCN)NC(=O)[C@H](CCCCN)NC(=O)[C@H](CC(C)C)NC(=O)[C@@H](NC(=O)[C@H](CCCNC(=N)N)NC(=O)[C@H](CS)NC(=O)[C@H](CC(C)C)NC(=O)[C@H](CCCCN)NC(=O)[C@H](CCCCN)NC(=O)[C@@H](N)CC(C)C)[C@@H](C)CC)C(=O)O [LI, LI14] (H-LKKLCRILKKLCRI-OH; N-terminus and C-terminus assumed)																			survival of larvae infected by the original MG1655 [17]: all larvae infected by the original MG1655 died; inhibition halo on chloramphenicol-resistant strains (in words) [18]: noticeable inhibitory effect; survival rate of larvae infected with chloramphenicol-resistant strains [19]: 62.5%
O=C1CN(/N=C/c2ccc([N+](=O)[O-])o2)C(=O)N1 [NIT, Nitrofurantoin]	16 (≈ 67.2 µM)	16 (≈ 67.2 µM)	8 (≈ 33.6 µM)	16 (≈ 67.2 µM)	8 (≈ 33.6 µM)	4 (≈ 16.8 µM)	512 (≈ 2150 µM)	16 (≈ 67.2 µM)	16 (≈ 67.2 µM)	8 (≈ 33.6 µM)	4 (≈ 16.8 µM)	16 (≈ 67.2 µM)	16	16	16	64	16 (≈ 67.2 µM)	16 (≈ 67.2 µM)	inhibition halo on trimethoprim-resistant strains (in words) [20]: significant inhibitory effect; collateral sensitivity of TMP30 (fold change of MIC vs wild-type MG1655) ([6]; MIC of TMP30 compared with MG1655): exceeding fourfold; MIC ([13]; MG1655, as E2, generation 40, read-out: MIC of MG1655 under the pressure of the same drug, generation 40): 64 mg/L; MIC ([13]; MG1655, as E2, generation 50, read-out: MIC of MG1655 under the pressure of the same drug, generation 50): 128 mg/L; MIC ([13]; MG1655, as E2, generation 60, read-out: MIC of MG1655 under the pressure of the same drug, generation 60): 256 mg/L; MIC ([13]; MG1655, as E2, generation 70, read-out: MIC of MG1655 under the pressure of the same drug, generation 70): 512 mg/L; killing of chloramphenicol-resistant bacteria (CFU) [21]: completely eradicated; CFU reduction of original MG1655 [22]: decreased by less than one-log

From publication PMC11915801, “Evolutionary trajectory of bacterial resistance to antibiotics and antimicrobial peptides in Escherichia coli” (mSystems, 2025)
